Data: patent US20130022612A1, “METHODS AND COMPOSITIONS FOR MALARIA PROPHYLAXIS” (priority 2004, published 2013)

Columns and labels:
[1] = tested on: CSP processing in P. berghei sporozoites; experiment: Pulse-chase metabolic labeling of CSP processing, P. berghei sporozoites; type: cell-based, Plasmodium berghei
Method: P. berghei sporozoites were incubated in Dulbecco's Modified Eagle Medium (DMEM; Invitrogen, Carlsbad, Calif.) without cysteine (Cys) and methionine (Met), containing 1% BSA and […] L-[35 S]-Cys/Met (Pro-Mix, Amersham Pharmacia) in a total volume of 200 μl for one hour at 28° C. They were then washed and resuspended in DMEM/BSA containing unlabeled Cys/Met at 28° C. for the indicated time in the presence or absence of the indicated protease inhibitor. Sporozoites were then lysed and CSP was immunoprecipitated and analyzed by autoradiography as outlined below.
When sporozoites were incubated with specific inhibitors, their concentrations were as follows: 10 […] E-64; 1 mM phenylmethylsulfonyl fluoride (PMSF); 0.3 mM aprotinin; 100 mM 3,4 DCl; 75 mM leupeptin; 100 mM TLCK; 1 mM pepstatin; 1 mM 1,10 phenanthroline; 5 mM EDTA; 0.5% sodium azide. To check for toxicity by propidium iodide (PI) staining, P. berghei sporozoites were incubated in the presence or absence of the various protease inhibitors for two hours at 28° C., PI was then added to a final concentration of […] for five minutes at 28° C. The sporozoites were washed and viewed under a fluorescent microscope.
Metabolically-labeled sporozoites were lysed in lysis buffer (1% Triton X-100, 50 mM Tris-HCl pH 8.0) with 150 mM NaCl containing a protease inhibitor cocktail (Complete Mini-Tablets, Roche) for one hour at 4° C. The lysates were incubated with mAb 3D11 conjugated to agarose overnight at 4° C. with agitation, and the beads were then washed sequentially with lysis buffer containing 150 mM NaCl, high salt buffer (500 mM NaCl in lysis buffer), lysis buffer without added NaCl, and pre-elution buffer (0.5% Triton X-100, 10 mM Tris-HCl pH 6.8). CSP was eluted with 1% SDS in 0.1 M glycine pH 1.8, neutralized with 1.5 M Tris-HCl pH 8.8, and run on a 7.5% SDS-polyacrylamide gel under nonreducing conditions.
P. berghei sporozoites were metabolically labeled as previously described (Bruna-Romero, O., et al.). Briefly, sporozoites were labeled in Dulbecco's Modified Eagle Medium containing 1% BSA (DMEM/BSA) without Cys/Met and with 400 μCi/ml L-[^35S]Cys/Met for one hour at 28° C. and chased in DMEM/BSA with Cys/Met at 28° C. in the presence of 10 μM E-64 or the indicated concentrations of allicin. Labeled sporozoites were lysed in 1% Triton X-100/150 mM NaCl/50 mM Tris-HCl pH 8.0 with protease inhibitors, and lysates were incubated with 3D11-sepharose overnight at 4° C. CSP was eluted with 1% SDS in 0.1 M glycine pH 1.8, neutralized with Tris-HCl pH 8.8, and run on a 7.5% SDS-polyacrylamide gel under nonreducing conditions. The gel was fixed, enhanced with Amplify (Amersham Pharmacia), dried and exposed to film.
P. berghei sporozoites were metabolically labeled in DMEM without Cys/Met, 1% BSA and 400 μCi/ml L-[^355]-Cys/Met for 1 hour at 28° C. and then kept on ice or chased at 28° C. for the indicated times. Details of this procedure are outlined in (Coppi et al., 2005). To investigate the kinetics of processing in the presence of hepatocytes, sporozoites were labeled as above, chased at 28° C. for 1 hour and then centrifuged (300×g) onto glass coverslips with Hepa 1-6 cells and incubated at 37° C. for 5, 15 or 30 minutes. To investigate the effect of antibodies on CSP cleavage, sporozoites were labeled as above and then chased for 2 hours in the presence of the indicated antibody. Monoclonal antibodies were used as purified antibodies at the indicated concentrations and the IgG fraction of the NH2-terminal antiserum was used after isolation by Protein A (Vivapure maxiprepA; Sartorius, Edgewood, N.Y.). In all cases, labeled sporozoites (with or without Hepa 1-6 cells) were lysed and labeled CSP was immunoprecipitated with mAb-3D11 conjugated to sepharose or in the case of P. falciparum CSP, with mAb-2A10 conjugated to sepharose, as previously described (Coppi et al., 2005). CSP was eluted from the beads, run on an SDS-PAGE gel which was enhanced, dried and exposed to film. […]

[2] = tested on: P. falciparum sporozoites; experiment: Sporozoite invasion assay, P. falciparum on HepG2 cells; type: cell-based, Plasmodium falciparum; details: sporozoites preincubated with E-64, HepG2 cells
Method: %invasion=total sporozites−extracellular sporozites×100/total sporozites
Hepa 1-6 cells were seeded in Permanox eight-chambered Lab-Tek wells (2.5×10^5/well) and allowed to grow overnight. On the day of the experiment, 5×10^5 P. berghei wild type, RCon or ΔRI sporozoites were added per well. Sporozoites pre-incubated with 10 μM E-64d for 15 minutes at 25° C. were used as controls. For experiments testing the effect of anti-repeat region antibodies on invasion, HepG2 cells were used and P. berghei or P. falciparum sporozoites were added to the cells in the presence of the indicated antibody. After 1 hour at 37° C., cells were washed, fixed, and sporozoites were stained with a double staining assay that distinguishes intracellular from extracellular sporozoites (Renia et al., 1988). To quantify EEF development, cells with sporozoites were grown for an additional 2 days after which they were fixed with methanol, stained with mAb 2E6 followed by goat anti-mouse Ig conjugated to FITC. In all assays, at least 50 fields per well were counted and each point was performed in triplicate.

[3] = tested on: CSP cleavage in P. berghei sporozoites; experiment: Cell contact assay (CSP cleavage on contact with hepatocytes); type: cell-based, Plasmodium berghei; details: experiment 1, no cells, visualized with α-N
Method: Hepa 1-6 cells were seeded on glass coverslips at a density of 2×10^5 cells per coverslip and grown until confluent. P. berghei sporozoites were incubated in DMEM±10 mM E-64 at 4° C. for two hours. Thirty minutes before sporozoites were added to coverslips, Cytochalasin D (CD) was added to all samples (final concentration, […]). Sporozoites were centrifuged onto coverslips (1250×g) for five minutes at 4° C. Coverslips were then brought to 37° C. for two minutes, fixed with 4% paraformaldehyde and stained with either mAb 3D11 followed by anti-mouse Ig FITC or the N-terminal antiserum (1:100) followed by anti-rabbit Ig FITC. […] As a control, sporozoites were spun onto coverslips without cells using the protocol outlined above.

[4] = tested on: sporozoite migration through cells; details: 10 mM E-64, rhodamine-dextran positive cells
Method: Migration assays were performed as previously described (Mota, M., et al.). Sporozoites were pre-incubated±10 mM E-64 for two hours at 28° C. and added to monolayers of Hepa 1-6 cells in the continued presence of inhibitor with 1 mg/ml rhodamine-dextran, 10,000 MW (Molecular Probes). After one hour at 37° C., the cells were washed, fixed and the number of rhodamine-positive cells in each field was counted.

**Q.** Which results are given for `C=CCS[S+]([O-])CC=C` (stereo not shown) [allicin]?
**A.** CSP cleavage ([1]; 50 μM allicin for 10 minutes, then diluted to 4.2 μM for the remainder of the chase): prevented CSP cleavage to the same extent as when 50 μM allicin was present during the entire chase; CSP cleavage ([1]; 10, 25, and 50 μM allicin, two hour chase): inhibited; degree of inhibition of CSP cleavage relative to E-64 ([1]; allicin versus 10 μM E-64): comparable to that observed with E-64

**Q.** Which “effect on CSP processing” value ([1]; two hour chase at 28° C., 10 mM E-64, 1 mM PMSF, 0.3 mM aprotinin, 100 mM 3,4 DCl, 75 mM leupeptin, 100 mM TLCK, 1 mM pepstatin, 1 mM 1,10 phenanthroline, 5 mM EDTA) does the source give for `CC(C)C[C@H](NC(=O)[C@H]1O[C@@H]1C(=O)O)C(=O)NCCCCN=C(N)N` (relative stereo) [E-64, L-trans-epoxysuccinyl-leucylamide-[4-guanido]-butane] here?
**A.** inhibited CSP processing

**Q.** And the “effect on invasion by P. falciparum sporozoites” value [2]?
**A.** significantly inhibited

**Q.** What about the “percentage staining with the N-terminal antiserum” value [3] of the same molecule?
**A.** 90% ± 4.1

**Q.** And the “sporozoite migration through cells” value [4]?
**A.** did not inhibit sporozoite migration through cells
